Test results from patent publication US20250034186A1, “ANTIVIRAL COMPOUNDS” (priority 2020, published 2025).

Experiments:
[1] = SAEC cytotoxicity assay; type: cell-based; conditions: human, small airway epithelial cells (SAEC)
Method: Human Small Airway Epithelial cells (SAEC) were purchased from Lonza (Walkersville, MD, Cat #CC-2547) and cultured in supplemented Small Airway Epithelial Cell Growth Medium (SAGM) (lonza, Walkersville, MD, Cat #CC-3118). The cells were passaged 1-2 times per week to maintain <80% confluency per manufacturer's protocol. The SAEC cells were discarded after 5 passages in culture.
(§1) Following attachment, 3-fold serially diluted compound was added using a Hewlett-Packard D300 Digital Dispenser (Hewlett Packard, Palo Alto, CA) in triplicate. The final concentration of DMSO was normalized to 1.0%. Following compound addition, NHBE or SAEC cells were incubated at 37° C. for 5 days. The NHBE or SAEC cells were then allowed to equilibrate to 25° C. and cell viability was determined by removing 100 μL of culture medium and adding 100 μL of Cell-Titer Glo viability reagent (Promega, Madison, WI). The mixtures were incubated for 10 minutes at 25° C., and the luminescence signal was quantified on an Envision luminescence plate reader (PerkinElmer, Waltham, MA). Percent viability values were determined by normalization to 1.0% DMSO-only control wells with background luminescent signal subtracted out.

[2] = NHBE cytotoxicity assay; type: cell-based; conditions: human, normal bronchial epithelial (NHBE) cells
Method: Normal human bronchial epithelial (NHBE) cells were purchased from Lonza (Walkersville, MD, Cat #CC-2540) and cultured in Bronchial Epithelial Growth Media (BEGM) (Lonza, Walkersville, MD, Cat #CC-3170). The cells were passaged 1-2 times per week to maintain <80% confluency per manufacturer's protocol. The NHBE cells were discarded after 5 passages in culture.
as §1

[3] = tested on: HRV14; assay: HRV14 HeLa EC50; type: cell-based, human rhinovirus; conditions: for EC50: Human rhinovirus sp., HRV14, H1-HeLa cells, 96 h, 37° C.
Method: H1-HeLa cells, cultured in complete RPMI 1640 medium containing 10% heat-inactivated FBS and 1% Penicillin/Streptomycin, were seeded in 96 well plates at 5000 cells/well one day prior to compound dosing and infection. The antiviral activity of each compound was measured in triplicate. Compounds were added directly to the cell cultures in serial 3-fold dilutions using the HP300 digital dispenser (Hewlett Packard, Palo Alto, CA) immediately prior to infection. The plates were transferred to BSL-2 containment and 100 μL of 1/4000 dilution of HRV14 virus stock was added to each well containing cells and serially diluted compounds. Each plate included 6 wells of infected untreated cells and 6 wells of cells containing 5 μM Rupintrivir that served as 0% and 100% virus inhibition control, respectively. Following the infection, test plates were incubated for 96 h in a tissue culture incubator set to 37° C./5% CO2. Following incubation, the H1-HeLa cells were removed from incubation and allowed to equilibrate to 25° C. Cell viability was determined by removing 100 μL of culture medium and adding 100 μL of Cell-Titer Glo viability reagent. The mixtures were incubated on a shaker for 10 minutes at 25° C., and the luminescence signal was quantified on an Envision luminescence plate reader.

[4] = Stability assay in cynomolgus monkey hepatic S9 fractions; type: in vitro ADME; conditions: 37° C., NADPH and UDPGA, read-out: Cyno HepS9 t1/2
Method: (§2) For S9 stability, the compounds were incubated at 2 μM in cynomolgus monkey or human hepatic S9 fractions for up to 90 min at 37° C. in the presence of NADPH and UDPGA (Phase I and Phase II cofactor, Sigma-Aldrich). At desired time points following compound addition, samples were quenched with 9 volumes of an aqueous solution containing internal standard, 50% acetonitrile and 25% methanol. Sample plates were centrifuged at 3000 g for 30 min, and 10 μL of the resulting solution was analyzed by LC-MS/MS. Data (analyte to internal standard peak area ratio) were plotted on a semi log scale and fitted using an exponential fit. The half-life (T1/2) was determined assuming first order kinetics.

[5] = tested on: DENV2 replicon; assay: DENV-2 Huh-7 Rep EC50; type: cell-based, dengue virus; conditions: for EC50: Dengue virus, Huh-7 cells containing DENV2 replicon, 48 hours, read-out: DENV Huh7 REP EC50
Method: In 384 well plates (Greiner, Cat #781091), compounds were acoustically transferred at 200 nl per well in a 8 compound (4 replicates) or 40 compound dose response format (3 replicates). For all plates tested, Balapiravir, GS-5734 and NITD008 were included as positive inhibition controls alongside 0% inhibition, DMSO-only negative control wells. Following compound addition, Huh-7 cells containing the DENV2 replicon construct were harvested following standard cell culture procedures and were adjusted to a concentration of 1.25E5 cells/mL in cell culture media composed of cDMEM without genticin. 40 μL of the cell stock was then added to each well for a final cell density of 5,000 cells/well. Cell and compound mixtures were incubated at 37° C./5% CO2 for 48 hours. Prior to harvesting cells, EnduRen Live Cell Substrate (Promega, Cat #E6481) was prepared by suspending 3.4 mg into 100 uL of DMSO to generate a 60 mM stock solution. The stock solution was then diluted 1:200 in pre-warmed cDMEM and 10 uL of this diluted solution was added to each well of the 384 well plates. Plates were then centrifuged at 500 rpm briefly and were placed on a plate shaker for 2 min. Following mixing, plates were incubated at […] for 1.5 hours prior to measuring luminescence on an Envision luminometer.

[6] = Stability assay in human hepatic S9 fractions; type: in vitro ADME; conditions: 37° C., NADPH and UDPGA, read-out: Hum HepS9 t1/2
Method: as §2

[7] = PRPT cytotoxicity assay; type: cell-based; conditions: human, primary renal proximal tubule epithelial cells (PRPTEC); 5-day incubation
Method: The PRPT cytotoxicity assays on the compound of Formula I and compounds 1, 2 and 6 were conducted using the following protocol.
Cryopreserved human primary renal proximal tubule epithelial cells (PRPTEC), were obtained from LifeLine Cell Technology (Frederick, MD, Cat #FC-0013) and isolated from the tissue of human kidney. The cells were cultured with RenaLife completed medium (LifeLine, Frederick, MD, Cat #LL-0025) in T75 flask for 3 to 4 days from cryopreserved vial, before the cells were seeded to assay plates after 90% confluence. PRPTEC cells were plated at a density of 5×10^3 cells per well in collagen coated 96-well plate with a final volume of […] per well. On next day, the compound was added to cell plates directly using HP D300 Dispenser (Hewlett-Packard, Palo Alto, CA) with program starting at 200 fold lower than the compound stock concentration, and 1:3 fold dilution in duplicates with constant amount of DMSO equal to 0.5%. After 5-day incubation, culture medium was removed, cell viability was measured by addition of […] per well of CellTiter Glo viability reagent (Promega, Madison, WI, Cat #G7573) and the luminescence signal was quantified on a Luminescence plate reader (Perkin-Elmer, Waltham, MA).

| SMILES | CC50 at 5 days [1] | CC50 at 5 days [2] | EC50 [3] | half-life at 2 μM [4] | EC50 [5] | half-life at 2 μM [6] | CC50 at 5 days [7] | times more potent relative to compound 1, HRV14 HeLa ([3]; EC50 ratio vs compound 1) | times more potent compared to compound 2, HRV14 HeLa ([3]; EC50 ratio vs compound 2) | times more potent relative to compound 3, HRV14 HeLa ([3]; EC50 ratio vs compound 3) | times more potent relative to compound 5, HRV14 HeLa ([3]; EC50 ratio vs compound 5) | times more potent than compound 1, DENV huh7 Rep ([5]; EC50 ratio vs compound 1) | times more potent compared to compound 2, DENV huh7 Rep ([5]; EC50 ratio vs compound 2) |
| --- | --- | --- | --- | --- | --- | --- | --- | --- | --- | --- | --- | --- | --- |
| CCC(CC)COC(=O)[C@H](C)NP(=O)(OC[C@@]1(C#N)O[C@@H](c2ccc3c(N)ncnn23)[C@H](O)[C@@H]1O)Oc1ccccc1 (some centres unmarked) [Compound 2, reference compound] | 28.3 µM | 29.1 µM | 0.171 µM | 3 min | 5.54 µM | 12 min | 23.8 µM |  |  |  |  |  |  |
| C[C@H](N[P@](=O)(OC[C@@]1(C#N)O[C@@H](c2ccc3c(N)ncnn23)[C@H](O)[C@@H]1O)Oc1ccccc1)C(=O)OC1CCCCC1 [Formula I, cyclohexyl ((S)-(((2R,3S,4R,5S)-5-(4-aminopyrrolo[2,1-f][1,2,4]triazin-7-yl)-2-cyano-3,4-dihydroxytetrahydrofuran-2-yl)methoxy)(phenoxy)phosphoryl)-L-alaninate] | 123 µM | > 40.1 µM | 0.078 µM | 26 min | 2.94 µM | 31 min | > 84.4 µM | ~12.8 times | about 2.2 times | about 23.2 times | about 44.0 times | about 25.0 times | about 1.9 times |
| CCOC(=O)[C@H](C)NP(=O)(OC[C@@]1(C#N)O[C@@H](c2ccc3c(N)ncnn23)[C@H](O)[C@@H]1O)Oc1ccccc1 (some centres unmarked) [Compound 1, reference compound] |  | > 50 µM | 1 µM |  | 73.4 µM | 12 min |  |  |  |  |  |  |  |
| CCC(CC)COC(=O)[C@H](C)N[P@](=O)(OC[C@@]1(C#N)O[C@@H](c2ccc3c(N)ncnn23)[C@H](O)[C@@H]1O)Oc1ccccc1 [Compound 6, 2-ethylbutyl ((S)-(((2R,3S,4R,5S)-5-(4-aminopyrrolo[2,1-f][1,2,4]triazin-7-yl)-2-cyano-3,4-dihydroxytetrahydrofuran-2-yl)methoxy)(phenoxy)phosphoryl)alaninate] | 27.2 µM | 24.4 µM |  | 2 min |  | 7 min | 42.3 µM |  |  |  |  |  |  |
